The source of these data is publication PMC12523282, “New 5,6-diphenyl-1,2,4-triazine-hydrazineylidene-phenoxy-1,2,3-triazole-acetamide derivatives as potent synthetic α-glucosidase inhibitors” (RSC Advances, 2025).

For experiment [1], the target named is α-glucosidase. Set-up: method as in PMID 31838286. Particulars: assay of template compounds B, Fig. 1 and Fig. 5; cited from earlier work.
Experiment [2] has as its target T1, α-glucosidase (Saccharomyces cerevisiae, UniProt P53341).
T1 construct: the yeast form of α-glucosidase, which was extracted from Saccharomyces cerevisiae; purchased Sigma-Aldrich; host or cells: Saccharomyces cerevisiae (extracted)
Kind of experiment: Anti-α-glucosidase assay (p-nitrophenyl-α-D-glucopyranoside substrate, absorbance 405 nm). The experiment is classed as biochemical. Particulars: for Inhibation: IC50 determination curve. As to the method: After this time, the p-nitrophenyl-α-D-glucopyranoside (25 μL, 4 mM) was added to the latter plate and allowed to incubate at 37 °C for 20 min. […] The percentage of inhibition (% inhibition) for each sample was calculated using the formula “[(Abs control − Abs sample)/Abs control] × 100”, and IC50 values were obtained from non-linear regression curve using the Logit method.[24]

In experiment [3] the target is T1, α-glucosidase. Kind of experiment: Kinetic study (Lineweaver–Burk method). The experiment is classed as biochemical. Conditions: Lineweaver–Burk plots. The procedure:
Then, p-nitrophenyl-α-D-glucopyranoside at various concentrations (1–4 mM) was added to initiate the enzymatic reaction.
The type of inhibition mode was indicated by Lineweaver–Burk plots.

By IC50 is commonly meant the concentration that inhibits the measured activity by half. The term inhibition denotes the relative decrease from the control value, in per cent.

T1 sequence (P53341 whole entry): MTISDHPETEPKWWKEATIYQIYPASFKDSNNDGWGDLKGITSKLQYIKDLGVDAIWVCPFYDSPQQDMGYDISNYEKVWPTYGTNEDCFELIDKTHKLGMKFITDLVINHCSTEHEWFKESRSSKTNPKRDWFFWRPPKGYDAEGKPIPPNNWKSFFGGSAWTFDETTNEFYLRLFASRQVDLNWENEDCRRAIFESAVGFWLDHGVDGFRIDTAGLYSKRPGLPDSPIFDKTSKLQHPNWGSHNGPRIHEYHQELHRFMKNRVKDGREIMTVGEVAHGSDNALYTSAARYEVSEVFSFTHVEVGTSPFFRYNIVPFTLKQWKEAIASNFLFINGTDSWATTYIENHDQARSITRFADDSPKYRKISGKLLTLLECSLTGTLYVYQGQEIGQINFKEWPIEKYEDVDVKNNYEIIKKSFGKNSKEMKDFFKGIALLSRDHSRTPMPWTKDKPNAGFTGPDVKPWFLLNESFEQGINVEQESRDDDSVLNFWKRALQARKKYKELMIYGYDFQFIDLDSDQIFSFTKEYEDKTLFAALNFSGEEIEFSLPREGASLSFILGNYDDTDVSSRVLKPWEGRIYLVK

`O=C(Cn1cc(COc2ccc(-c3nc4ccccc4[nH]3)cc2)nn1)Nc1ccccc1Cl` [B (R = 2-Cl, n = 0)]: the IC50 on α-glucosidase [1] was 70.6 µM.
As to `O=C(Cn1cc(COc2ccc(/C=N/Nc3nnc(-c4ccccc4)c(-c4ccccc4)n3)cc2)nn1)Nc1ccc(Cl)cc1` [Compound 13j, (E)-N-(4-Chlorophenyl)-2-(4-((4-((2-(5,6-diphenyl-1,2,4-triazin-3-yl)hydrazineylidene)methyl)phenoxy)methyl)-1H-1,2,3-triazol-1-yl)acetamide], the Inhibation is 73.02 on α-glucosidase [2] (Conc. 15 (unit not given)), 75.43 on α-glucosidase [2] (Conc. 30 (unit not given)), 79 on α-glucosidase [2] (Conc. 60 (unit not given)) and 81 at α-glucosidase [2] (Conc. 90 (unit not given)). Moreover, the IC50 at α-glucosidase [2] (IC50 (from IC50 determination curves, supplement), logarithmic fit of inhibition vs Conc., unit inferred) was under 15 µM; at α-glucosidase [2] (IC50, yeast α-glucosidase, mean ± SD, at least three experiments), 0.12 ± 0.02 µM. The inhibition at 750 µM on α-glucosidase [2] (read-out: In (%), inhibition percentage against α-glucosidase) worked out at 83%. The “effect of increasing inhibitor concentration on Vmax and Km” value at α-glucosidase [3] was “decrease in both Vmax and Km values”. For the same compound, the “type of inhibition mode” value on α-glucosidase [3] is on record as “uncompetitive α-glucosidase inhibitor”.
Turning to `O=C(Cn1cc(COc2ccc(-c3nc4ccccc4[nH]3)cc2)nn1)NCc1ccccc1` [B (R = H, n = 1)], the IC50 at α-glucosidase [1] was 121 µM.
